Measurements reported in patent publication EP2951180B1, “2,6,7,8 SUBSTITUTED PURINES AS HDM2 INHIBITORS” (Merck Sharp & Dohme Corp., priority 2013, dated 2014).

Biological target: T1, HDM2 (Homo sapiens, UniProt Q00987)
T1 construct: Thioredoxin (N); made in house; host or cells: E. coli strain BL21(DE3)Rosetta
Assay: FRET assay (HDM2 inhibition; method not described in this part)
Assay type: binding

T1 sequence (Q00987 17-125): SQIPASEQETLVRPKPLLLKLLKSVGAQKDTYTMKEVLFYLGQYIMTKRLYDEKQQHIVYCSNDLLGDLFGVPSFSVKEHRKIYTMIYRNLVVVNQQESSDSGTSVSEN

Row | Structure (SMILES) | IC50 (Table 1) | further results
1 | C[C@@H](Nc1nc(C(=O)O)nc2nc(-c3ccccc3C(F)(F)F)n(Cc3ccc(C(F)(F)F)cc3)c12)C1CCC1 [Example 2.79, 6-{[(1R)-1-cyclobutylethyl]amino}-7-[4-(trifluoromethyl)benzyl]-8-[2-(trifluoromethyl)phenyl]-7H-purine-2-carboxylic acid] |  | IC50 (Table 2): 13.4 nM
2 | C[C@@H](Nc1nc(C(=O)O)nc2nc(-c3cccc(C(C)(C)C)c3)n(Cc3ccc(C(F)(F)F)cc3)c12)C1CC1 [Example 2.19, 8-(3-tert-butylphenyl)-6-{[(1R)-1-cyclopropylethyl]amino}-7-[4-(trifluoromethyl)benzyl]-7H-purine-2-carboxylic acid] |  | IC50 (Table 2): 145 nM
3 | C[C@@H](Nc1nc(C(=O)O)nc2nc(-c3ccccc3Cl)n(Cc3ccc(C(F)(F)F)cc3)c12)C1CC1 [Example 2.55, 8-(2-chlorophenyl)-6-{[(1R)-1-cyclopropylethyl]amino}-7-[4-(trifluoromethyl)benzyl]-7H-purine-2-carboxylic acid] |  | IC50 (Table 2): 98.3 nM
4 | Cc1ccc(-c2nc3nc(C(=O)O)nc(N[C@H](C)C4CC4)c3n2Cc2ccc(C(F)(F)F)cc2)cn1 [Example 2.36, 6-{[(1R)-1-cyclopropylethyl]amino}-8-(6-methylpyridin-3-yl)-7-[4-(trifluoromethyl)benzyl]-7H-purine-2-carboxylic acid] |  | IC50 (Table 2): 1300 nM
5 | C[C@@H](Nc1nc(C(=O)O)nc2nc(-c3cccc(Nc4ccccc4)c3)n(Cc3ccc(C(F)(F)F)cc3)c12)C1CCC1 [Example 1.130, 6-{[(1R)-1-cyclobutylethyl]amino}-8-[3-(phenylamino)phenyl]-7-[4-(trifluoromethyl)benzyl]-7H-purine-2-carboxylic acid] | 76.3 nM | 
6 | Cc1cccc(-c2nc3nc(C(=O)O)nc(N[C@H](C)C4CC4)c3n2Cc2ccc(C(C)C)cc2)c1 [Example 5.7, 6-{[(1R)-1-cyclopropylethyl]amino}-7-[4-(1-methylethyl)benzyl]-8-(3-methylphenyl)-7H-purine-2-carboxylic acid] |  | IC50 (Table 5): 3550 nM
7 | CCOc1ccc(CC)cc1-c1nc2nc(C(=O)O)nc(N[C@H](C)C3CCC3)c2n1Cc1ccc(C(F)(F)F)cc1 [Example 1.32, 6-{[(1R)-1-cyclobutylethyl]amino}-8-(2-ethoxy-5-ethylphenyl)-7-[4-(trifluoromethyl)benzyl] - 7H-purine-2-carboxylic acid] | 23.6 nM | 
8 | C[C@@H](Nc1nc(C(=O)O)nc2nc(-c3cc(C(F)F)cc(C(F)F)n3)n(Cc3ccc(C(F)(F)F)cc3)c12)C1CCC1 [Example 1.64, 8-[4,6-bis(difluoromethyl)pyridin-2-yl]-6-{[(1R)-1-cyclobutylethyl]amino}-7-[4-(trifluoromethyl)benzyl] - 7H-purine-2-carboxylic acid] | 22.9 nM | 
9 | Cc1ccc(OCCCO)c(-c2nc3nc(C(=O)O)nc(N[C@H](C)C4CCC4)c3n2Cc2ccc(Cl)cc2)c1 [Example 4.6, (R)-7-(4-chlorobenzyl)-6-((1-cyclobutylethyl)amino)-8-(2-(3-hydroxypropoxy)-5-methylphenyl)-7H-purine-2-carboxylic acid] |  | IC50 (Table 4): 33.7 nM
10 | COc1ncc(-c2nc3nc(C(=O)O)nc(N[C@H](C)C4CCC4)c3n2Cc2ccc(C(F)(F)F)cc2)cc1Cl [Example 2.46, 8-(5-chloro-6-methoxypyridin-3-yl)-6-{[(1R)-1-cyclobutylethyl]amino}-7-[4-(trifluoromethyl)benzyl]-7H-purine-2-carboxylic acid] |  | IC50 (Table 2): 51 nM
11 | CC(C)c1ccnc(-c2nc3nc(C(=O)O)nc(N[C@H](C)C4CCC4)c3n2Cc2ccc(C(F)(F)F)s2)c1 [Example 1.7, 6-{[(1R)-1-cyclobutylethyl]amino}-8-[4-(propan-2-yl)pyridin-2-yl]-7-{[5-(trifluoromethyl)thiophen-2-yl]methyl}-7H-purine-2-carboxylic acid] | 26.9 nM | 
12 | C[C@@H](Nc1nc(C(=O)O)nc2nc(-c3cnc(O)c(F)c3)n(Cc3ccc(C(F)(F)F)cc3)c12)C1CC1 [Example 2.51, 6-{[(1R)-1-cyclopropylethyl]amino}-8-(5-fluoro-6-hydroxypyridin-3-yl)-7-[4-(trifluoromethyl)benzyl]-7H-purine-2-carboxylic acid] |  | IC50 (Table 2): 1230 nM
13 | CC(C)Oc1cccc(-c2nc3nc(C(=O)O)nc(N[C@H](C)C4CC4)c3n2Cc2ccc(C(F)(F)F)cc2)c1 [Example 1.98, 6-{[(1R)-1-cyclopropylethyl]amino} -8-[3-(1-methylethoxy)phenyl]-7-[4-(trifluoromethyl)benzyl]-7H-purine-2-carboxylic acid] | 316 nM | 
14 | CC(C)c1ccnc(-c2nc3nc(C(=O)O)nc(N[C@H](C)C4CCC4)c3n2Cc2ccc(C(F)(F)F)c(F)c2)c1 [Example 1.49, 6-{[(1R)-1-cyclobutylethyl]amino}-7-[3-fluoro-4-(trifluoromethyl)benzyl] - 8-[4-(1-methylethyl)pyridin-2-yl]-7H-purine-2-carboxylic acid] | 3.52 nM | 
15 | C[C@@H](Nc1nc(C(=O)O)nc2nc(-c3ncccc3-c3ccccc3)n(Cc3ccc(C(F)(F)F)cc3)c12)C1CCC1 [Example 1.75, 6-{[(1R)-1-cyclobutylethyl]amino}-8-(3-phenylpyridin-2-yl)-7-[4-(trifluoromethyl)benzyl]-7H-purine-2-carboxylic acid] | 6.12 nM | 
16 | CCC(C)c1ccnc(-c2nc3nc(C(=O)O)nc(N[C@H](C)C4CCC4)c3n2Cc2ccc(C(F)(F)F)cc2)c1 (single isomer, unassigned) [Example 1.14] | 3.65 nM | 

Row | Structure (SMILES) | IC50 (Table 1) | further results
17 | Cc1cccnc1-c1nc2nc(C(=O)O)nc(N[C@H](C)C3CCC3)c2n1Cc1ccc(C(F)(F)F)cc1 [Example 1.18] | 45.7 nM | 
18 | Cc1ccc(Cl)cc1-c1nc2nc(C(=O)O)nc(N[C@H](C)C3CCC3)c2n1Cc1ccc(C(F)(F)F)cc1 [Example 1.132, 8-(5-chloro-2-methylphenyl)-6-{[(1R)-1-cyclobutylethyl]amino}-7-[4-(trifluoromethyl)benzyl]-7H-purine-2-carboxylic acid] | 524 nM | 
19 | CC(C)c1cnc(-c2nc3nc(C(=O)O)nc(N[C@H](C)C4CCC4)c3n2Cc2ccc(C(F)(F)F)cc2)s1 [Example 3.3, (R)-6-((1-cyclobutylethyl)amino)-8-(5-isopropylthiazol-2-yl)-7-(4-(trifluoromethyl)benzyl)-7H-purine-2-carboxylic acid] |  | IC50 (Table 3): 57.9 nM
20 | CCOc1ccc(C)cc1-c1nc2nc(C(=O)O)nc(N[C@H](C)C3CCC3)c2n1Cc1ccc(Cl)cc1 [Example 4.1, (R)-7-(4-chlorobenzyl)-6-((1-cyclobutylethyl)amino)-8-(2-ethoxy-5-methylphenyl)-7H-purine-2-carboxylic acid] |  | IC50 (Table 4): 32 nM
21 | C[C@@H](Nc1nc(C(=O)O)nc2nc(-c3cc(C(C)(C)O)ccn3)n(Cc3ccc(C(F)(F)F)cc3)c12)C1CCC1 [Example 1.27, 6-{[(1R)-1-cyclobutylethyl]amino}-8-[4-(1-hydroxy-1-methylethyl)pyridin-2-yl]-7-[4-(trifluoromethyl)benzyl]-7H-purine-2-carboxylic acid] | 9.41 nM | 
22 | CC(C)c1ccnc(-c2nc3nc(C(=O)O)nc(N[C@H](C)C4CCC4)c3n2Cc2ccc(Cl)c(F)c2)c1 [Example 1.6, 7-(4-chloro-3-fluorobenzyl)-6-{[(1R)-1-cyclobutylethyl]amino}-8-[4-(propan-2-yl)pyridin-2-yl]-7H-purine-2-carboxylic acid] | 2.79 nM | 
23 | Cc1ccc2cc(-c3nc4nc(C(=O)O)nc(N[C@H](C)C5CCC5)c4n3Cc3ccc(C(F)(F)F)cc3)ccc2n1 [Example 1.111, 6-{[(1R)-1-cyclobutylethyl]amino}-8-(2-methylquinolin-6-yl)-7-[4-(trifluoromethyl)benzyl]-7H-purine-2-carboxylic acid] | 128 nM | 
24 | C[C@@H](Nc1nc(C(=O)O)nc2nc(C3CC3)n(Cc3ccc(Cl)cc3)c12)C1CC1 [Example 2.42, 7-(4-chlorobenzyl)-8-cyclopropyl-6-{[(1R)-1-cyclopropylethyl]amino}-7H-purine-2-carboxylic acid] |  | IC50 (Table 2): 265 nM
25 | C[C@@H](Nc1nc(C(=O)O)nc2nc(-c3cc(-c4ccccc4)ccn3)n(Cc3ccc(C(F)(F)F)cc3)c12)C1CCC1 [Example 1.26, 6-{[(1R)-1-cyclobutylethyl]amino}-8-(4-phenylpyridin-2-yl)-7-[4-(trifluoromethyl)benzyl] - 7H-purine-2-carboxylic acid] | 12.1 nM | 
26 | CC(O)c1ccnc(-c2nc3nc(C(=O)O)nc(N[C@H](C)C4CCC4)c3n2Cc2ccc(C(F)(F)F)cc2)c1 (stereo partly drawn) [Example 1.28, 6-{[(1R)-1-cyclobutylethyl]amino}-8-[4-(1-hydroxyethyl)pyridin-2-yl]-7-[4-(trifluoromethyl)benzyl]-7H-purine-2-carboxylic acid] | 12.4 nM | 
27 | Cc1ccnc(-c2nc3nc(C(=O)O)nc(N[C@H](C)C4CCC4)c3n2Cc2ccc(C(F)(F)F)cc2)c1F [Example 1.82, 6-{[(1R)-1-cyclobutylethyl]amino}-8-(3-fluoro-4-methylpyridin-2-yl)-7-[4-(trifluoromethyl)benzyl]-7H-purine-2-carboxylic acid] | 49 nM | 
28 | CC(C)c1ccc(OC(F)(F)F)c(-c2nc3nc(C(=O)O)nc(N[C@H](C)C4CCC4)c3n2Cc2ccc(C(F)(F)F)c(F)c2)c1 [Example 1.3, (R)-6-((1-cyclobutylethyl)amino)-7-(3-fluoro-4-(trifluoromethyl)benzyl)-8-(5-isopropyl-2-(trifluoromethoxy)phenyl)-7H-purine-2-carboxylic acid] | 15.2 nM | 
29 | C[C@@H](Nc1nc(C(=O)O)nc2nc(-c3cccc(Cl)c3)n(Cc3ccc(Cl)cc3)c12)C1CC1 [Example 2.5, 7-(4-chlorobenzyl)-8-(3-chlorophenyl)-6-{[(1R)-1-cyclopropylethyl]amino}-7H-purine-2-carboxylic acid] |  | IC50 (Table 2): 218 nM
30 | CC(C)c1cc(-c2nc3nc(C(=O)O)nc(N[C@H](C)C4CCC4)c3n2Cc2ccc(C(F)(F)F)cc2)ccn1 [Example 1.4, (R)-6-((1-cyclobutylethyl)amino)-8-(2-isopropylpyridin-4-yl)-7-(4-(trifluoromethyl)benzyl)-7H-purine-2-carboxylic acid] | 58.8 nM | 
31 | Cc1ccc(OCC(O)CO)c(-c2nc3nc(C(=O)O)nc(N[C@H](C)C4CC4)c3n2Cc2ccc(Cl)cc2)c1 (stereo partly drawn) [Example 4.19, 7-(4-chlorobenzyl)-6-(((R)-1-cyclopropylethyl)amino)-8-(2-(2,3-dihydroxypropoxy)-5-methylphenyl)-7H-purine-2-carboxylic acid] |  | IC50 (Table 4): 586 nM
